# Source: paper PMC8482815, “Targeting Host Glycolysis as a Strategy for Antimalarial Development” (Frontiers in Cellular and Infection Microbiology, 2021)
# Several values for one entry are separate records, joined by “and”; a condition that tells them apart may be missing. Equal entries are not always repeated.
# Tested on: human erythrocytes
# Assay: Untargeted metabolomics and 13C-glucose tracing of enolase inhibitor treated erythrocytes
# Format: cell-based
# Conditions: 6h
# Method: Freshly collected erythrocytes were washed, resuspended to 10% hematocrit in buffer [25mM HEPES (pH 7.4), 120mM NaCl, 5.4mM KCl, 1.8mM CaCl2, and 1mM NaH2PO4], incubated for 1 hour at 37°C, then centrifuged at 2000xg for 5 minutes at 4°C, resuspended in fresh wash buffer to 30-40% hematocrit, and split into 210µL aliquots of packed erythrocytes. […] All samples were incubated at 37°C shaking at 500 RPM. Triplicate samples of supernatants and packed erythrocytes were collected at 0, 0.5, 1, and 6-hour intervals and snap-frozen in liquid N2.
# RBC and media samples were extracted at 1:10 and 1:20 dilutions, respectively, in 5:3:2 MeOH : MeCN:H2O v/v/v, and supernatants analyzed on a Thermo Vanquish UHPLC coupled to a Thermo Q Exactive mass spectrometer, as extensively described ([Nemkov et al., 2015]; [Nemkov et al., 2017]). The extraction buffer was supplemented with 40uM 3-^13C lactate to allow absolute quantification of lactate isotopologues, including lactate generated via glycolysis ([1,2,3-^13C3] enriched) vs. the pentose phosphate pathway ([2,3-^13C2] enriched), as described ([Reisz et al., 2016]). Metabolite assignments, peak area integration and isotopologues distributions were determined using Maven (Princeton University) ([Nemkov et al., 2015]; [Nemkov et al., 2017]).
# Data were auto-scaled and normalized to zero-hour time points. Metabolites were removed from the dataset if greater than 50% of the samples contained missing values or the relative standard deviation among replicates exceeded 25%. Additionally, data was filtered using the interquartile range to reduce near-constant values from the experiment by 5%.
# A principal component analysis of preprocessed data was plotted with the 95% confidence interval minimum volume enclosing ellipsoid for each respective group (MetaboAnalyst, cluster, plotly). A two-way repeated measures analysis of variance (ANOVA) was performed with multiple comparisons corrected for using a false discovery rate p-value cutoff of 0.05. Metabolite-Pathway analysis was performed using the R package of MetaboAnalyst, as previously described ([Xia and Wishart, 2010]). Metabolite-Protein nodal analysis was performed using omicsnet.ca and as previously described ([Zhou and Xia, 2018]).
# [1] = treated erythrocytes, one value per replicate sample, polarity +
# [2] = treated erythrocytes, one value per replicate sample, polarity -
# [3] = treated erythrocytes, replicate samples
smiles,measurement,setting,value
CC(C)(C)C(=O)OCOP(=O)(OCOC(=O)C(C)(C)C)C1CCCN(O)C1=O (stereo not shown) [POMHEX],AMP level (metabolomics signal),replicate samples,3.72E+05 and 4.97E+05 and 4.88E+05
same,ATP level (metabolomics signal),replicate samples,1.06E+05 and 4.51E+04 and 2.86E+04
same,Adenine level (metabolomics signal),replicate samples,1.10E+05 and 1.13E+05 and 1.03E+05
same,Cytosine level (metabolomics signal),replicate samples,0.00E+00
same,L-alanine level (metabolomics signal),replicate samples,7.74E+06 and 6.77E+06 and 7.99E+06
same,L-arginine level (metabolomics signal),replicate samples,4.96E+06 and 6.71E+06 and 3.72E+06
same,L-asparagine level (metabolomics signal),replicate samples,5.50E+06 and 5.88E+06 and 6.25E+06
same,L-aspartate level (metabolomics signal),replicate samples,1.08E+07 and 1.19E+07 and 1.12E+07
same,L-cysteine level (metabolomics signal),replicate samples,4.98E+05 and 5.97E+05 and 1.05E+06
same,L-glutamate level (metabolomics signal),replicate samples,5.99E+06 and 6.14E+06 and 6.66E+06
same,L-glutamine level (metabolomics signal),replicate samples,6.37E+07 and 6.26E+07 and 6.35E+07
same,L-histidine level (metabolomics signal),replicate samples,1.60E+06 and 1.47E+06 and 1.87E+06
same,L-isoleucine level (metabolomics signal),replicate samples,1.28E+07 and 1.42E+07 and 1.14E+07
same,L-leucine level (metabolomics signal),replicate samples,1.47E+08 (2×) and 1.27E+08
same,L-lysine level (metabolomics signal),replicate samples,1.47E+06 and 1.24E+06 and 1.45E+06
same,L-methionine level (metabolomics signal),replicate samples,1.56E+07 and 1.66E+07 and 1.27E+07
same,L-phenylalanine level (metabolomics signal),replicate samples,7.06E+06 and 6.50E+06 and 4.97E+06
same,L-proline level (metabolomics signal),replicate samples,6.39E+07 and 5.46E+07 and 5.96E+07
same,L-serine level (metabolomics signal),replicate samples,4.50E+06 and 4.60E+06 and 4.86E+06
same,L-threonine level (metabolomics signal),replicate samples,8.82E+06 and 8.15E+06 and 8.77E+06
same,L-tryptophan level (metabolomics signal),replicate samples,1.85E+06 and 1.63E+06 and 1.27E+06
same,L-tyrosine level (metabolomics signal),replicate samples,2.13E+07 and 2.30E+07 and 1.69E+07
same,L-valine level (metabolomics signal),replicate samples,1.59E+08 and 1.62E+08 and 1.47E+08
same,dCMP level (metabolomics signal),replicate samples,1.62E+04 and 1.66E+04 and 1.35E+04
same,dTMP level (metabolomics signal),replicate samples,1.10E+06 and 1.20E+06 and 9.63E+05
same,glycine level (metabolomics signal),replicate samples,1.51E+06 and 1.66E+06 and 1.67E+06
same,N-Acyl-D-aspartate (C06380) metabolite signal,[1],6.16E+04 and 5.50E+04 and 5.26E+04
same,Poly-gamma-D-glutamate (C05723) metabolite signal,[1],4.45E+07 and 4.25E+07 and 4.46E+07
same,D-Ribitol 5-phosphate (C01068) metabolite signal,[2],1.15E+04 and 2.30E+04 and 2.25E+04
same,"D-glucono-1,5-lactone (C00198) metabolite signal",[2],2.58E+05 and 2.64E+05 and 3.28E+05
same,L-Noradrenaline (C00547) metabolite signal,[2],2.02E+04 and 2.76E+04 and 1.70E+04
same,Oxalosuccinate (C05379) metabolite signal,[2],8.49E+04 and 8.94E+04 and 8.00E+04
same,Pyridoxamine (C00534) metabolite signal,[2],9.67E+03 and 8.58E+03 and 9.61E+03
same,Thioredoxin disulfide (C00343) metabolite signal,[2],2.29E+04 and 2.69E+04 and 2.77E+04
same,1-4-beta-D-Xylan (metabolite signal),[3],1.64E+05 and 1.40E+05 and 1.93E+05
same,2-Hydroxyglutarate/Citramalate (C02630) metabolite signal,[3],7.84E+04 and 5.75E+04 and 5.66E+04
same,5-6-Dihydrothymine (C00906) metabolite signal,[3],2.80E+05 and 2.87E+05 and 2.28E+05
same,5-10-Methenyltetrahydrofolate (metabolite signal),[3],1.54E+05 and 1.37E+05 and 1.05E+05
same,5-Hydroxyisourate (C11821) metabolite signal,[3],4.81E+06 and 4.49E+06 and 3.27E+06
same,5-L-Glutamyl-taurine (metabolite signal),[3],1.49E+05 and 1.28E+05 and 1.35E+05
same,5-Oxoproline (metabolite signal),[3],8.83E+05 and 1.09E+06 and 7.57E+05
same,(S)(+)-Allantoin (C02350) metabolite signal,[3],7.40E+03 and 8.26E+03 and 9.04E+03
same,Allantoate (C00499) metabolite signal,[3],5.78E+05 and 5.92E+05 and 8.52E+05
same,Ascorbate (metabolite signal),[3],7.64E+04 and 9.21E+04 and 9.25E+04
same,CMP-N-acetylneuraminate (metabolite signal),[3],2.55E+04 and 6.91E+03 and 6.08E+03
same,Carnosine (metabolite signal),[3],1.46E+05 and 1.52E+05 and 1.15E+05
same,Citrate (C00158) metabolite signal,[3],2.76E+04 and 1.91E+04 and 1.57E+04
same,Creatine (metabolite signal),[3],1.37E+08 and 1.42E+08 and 1.27E+08
same,Creatinine (metabolite signal),[3],2.18E+06 and 2.32E+06 and 1.85E+06
same,Cys-Gly (metabolite signal),[3],7.81E+05 and 5.57E+05 and 7.70E+05
same,D-Glucosamine (metabolite signal),[3],3.33E+05 and 2.53E+05 and 2.71E+05
same,D-Glucose (C00031) metabolite signal,[3],3.99E+06 and 4.57E+06 and 4.90E+06
same,D-Ribose (C00121) metabolite signal,[3],1.11E+05 and 8.97E+04 and 8.43E+04
same,Dehydroascorbate (metabolite signal),[3],3.57E+04 and 4.39E+04 and 4.65E+04
same,Dihydrofolate (metabolite signal),[3],1.44E+06 and 1.74E+06 and 1.87E+06
same,Dimethylglycine (metabolite signal),[3],6.87E+05 and 6.86E+05 and 5.98E+05
same,Diphosphate (C00013) metabolite signal,[3],2.84E+04 and 3.52E+04 and 3.86E+04
same,Fumarate (C00122) metabolite signal,[3],9.00E+04 and 7.84E+04 and 7.19E+04
same,Glutathione (C00051) metabolite signal,[3],4.59E+07 and 3.87E+07 and 4.33E+07
same,Glutathione disulfide (metabolite signal),[3],3.00E+05 and 9.38E+04 and 7.81E+04
same,Hypoxanthine (C00262) metabolite signal,[3],7.14E+03 and 5.93E+03 and 0.00E+00
same,IMP (C00130) metabolite signal,[3],4.51E+04 and 3.74E+04 and 4.61E+04
same,Inosine (C00294) metabolite signal,[3],6.84E+04 and 6.73E+04 and 4.20E+04
same,L-Citrulline (metabolite signal),[3],2.71E+06 and 3.04E+06 and 2.48E+06
same,L-Homoserine (metabolite signal),[3],2.62E+05 and 3.31E+05 and 2.39E+05
same,Lactate (C01432) metabolite signal,[3],1.75E+07 and 2.07E+07 and 1.43E+07
same,Malate (C00149) metabolite signal,[3],1.61E+05 and 9.39E+04 and 7.61E+04
same,Mannitol (C00392) metabolite signal,[3],1.83E+05 and 1.22E+05 and 1.51E+05
same,N-Acetylneuraminate (metabolite signal),[3],1.66E+04 and 1.46E+04 and 8.13E+03
same,N-Glycoloyl-neuraminate (metabolite signal),[3],7.64E+04 and 8.68E+04 and 1.14E+05
same,NAD+ (C00003) metabolite signal,[3],5.29E+04 and 5.95E+04 and 9.85E+04
same,Nicotinamide (C00153) metabolite signal,[3],2.02E+07 and 2.16E+07 and 1.82E+07
same,Ornithine (metabolite signal),[3],1.75E+06 and 1.63E+06 and 1.64E+06
same,Oxaloacetate (C00036) metabolite signal,[3],3.72E+04 and 4.43E+04 and 3.47E+04
same,Phosphoserine (metabolite signal),[3],2.32E+04 and 2.57E+04 and 1.04E+04
same,Putrescine (metabolite signal),[3],4.24E+04 and 2.70E+04 and 3.11E+04
same,Pyridoxal (C00250) metabolite signal,[3],4.26E+04 and 5.24E+04 and 7.64E+04
same,Pyruvate (C00022) metabolite signal,[3],2.17E+06 (2×) and 1.35E+06
same,S-Glutathionyl-L-cysteine (metabolite signal),[3],2.24E+05 and 8.00E+04 and 6.92E+04
same,Sedoheptulose 1-phosphate (C06222) metabolite signal,[3],2.39E+04 and 1.32E+04 and 9.55E+03
same,Spermidine (metabolite signal),[3],6.66E+06 and 5.53E+06 and 5.68E+06
same,Spermine (metabolite signal),[3],8.48E+06 and 7.61E+06 and 6.89E+06
same,Succinate (C00042) metabolite signal,[3],3.87E+04 and 5.97E+04 and 7.05E+04
same,Thymidine (C00214) metabolite signal,[3],1.24E+04 and 9.43E+03 and 3.23E+03
same,UDP (C00015) metabolite signal,[3],8.83E+04 and 9.94E+04 and 8.18E+04
same,UDP-N-acetyl-D-glucosamine (metabolite signal),[3],8.06E+03 and 2.61E+03 and 5.41E+03
same,UDP-glucose (C00029) metabolite signal,[3],9.76E+03 and 1.91E+03 and 5.75E+03
same,Urate (C00366) metabolite signal,[3],3.58E+04 and 2.84E+04 and 2.03E+04
same,Xanthine (C00385) metabolite signal,[3],7.82E+04 and 7.20E+04 and 8.31E+04
same,alpha-D-Glucosamine 1-phosphate (metabolite signal),[3],9.63E+05 and 8.22E+05 and 5.48E+05
same,alpha-D-Ribose 1-phosphate (C00620) metabolite signal,[3],4.34E+04 and 2.92E+04 and 1.97E+04
same,gamma-Glutamyl-gamma-aminobutyrate (metabolite signal),[3],5.87E+04 and 5.26E+04 and 3.36E+04
same,gamma-L-Glutamyl-D-alanine (metabolite signal),[3],4.70E+04 and 4.49E+04 and 2.74E+04
same,gamma-L-Glutamyl-L-cysteine (metabolite signal),[3],4.20E+04 and 3.03E+04 and 3.96E+04
